Data: ChEMBL document CHEMBL6109125, “A New Protractor Potentiates Glucagon-Like Peptide 1 with Slow-Release Depot and Long-Term Action” (J Med Chem, 2025)

How the values were obtained:
[1] = molecular target: T1, Glucagon-like peptide 1 receptor (Homo sapiens, UniProt P43220); experiment: Agonist activity at GLP-1R (unknown origin) expressed in HEK293 cells co-expressing CRE-Luc assessed as increase in intracellular cAMP accumulation by luciferase based assay; type: functional, cell-based
[2] = molecular target: T1, Glucagon-like peptide 1 receptor; experiment: Agonist activity at GLP-1R (unknown origin) expressed in HEK293 cells co-expressing CRE-Luc assessed as increase in intracellular cAMP accumulation in presence of 10% FBS by luciferase based assay; type: functional, cell-based
[3] = molecular target: T1, Glucagon-like peptide 1 receptor; experiment: Agonist activity at GLP-1R (unknown origin) expressed in HEK293 cells co-expressing CRE-Luc assessed as increase in intracellular cAMP accumulation in presence of 2% HSA by luciferase based assay; type: functional, cell-based
[4] = Selectivity ratio of EC50 for agonist activity at GLP-1R (unknown origin) expressed in HEK293 cells co-expressing CRE-Luc assessed as increase in intracellular cAMP accumulation in presence of 2% HSA to EC50 for agonist activity at GLP-1R (unknown origin) expressed in HEK293 cells co-expressing CRE-Luc assessed as increase in intracellular cAMP accumulation; type: cell-based
Albumin = Albumin (Homo sapiens, UniProt P02768); experiment: Binding affinity to human serum albumin immobilized on AR2G biosensor assessed as dissociation constant incubated for 3 mins by BLI assay; type: ADME
[5] = Stability in Sprague-Dawley rat plasma assessed as drug degradation by measuring half life measured after 96 hrs by RP-HPLC analysis; type: ADME, cell-free
[6] = Stability in Sprague-Dawley rat plasma assessed as compound remaining measured after 96 hrs by RP-HPLC analysis; type: ADME, cell-free; details: read-out: Stability

T1 sequence (P43220 whole entry): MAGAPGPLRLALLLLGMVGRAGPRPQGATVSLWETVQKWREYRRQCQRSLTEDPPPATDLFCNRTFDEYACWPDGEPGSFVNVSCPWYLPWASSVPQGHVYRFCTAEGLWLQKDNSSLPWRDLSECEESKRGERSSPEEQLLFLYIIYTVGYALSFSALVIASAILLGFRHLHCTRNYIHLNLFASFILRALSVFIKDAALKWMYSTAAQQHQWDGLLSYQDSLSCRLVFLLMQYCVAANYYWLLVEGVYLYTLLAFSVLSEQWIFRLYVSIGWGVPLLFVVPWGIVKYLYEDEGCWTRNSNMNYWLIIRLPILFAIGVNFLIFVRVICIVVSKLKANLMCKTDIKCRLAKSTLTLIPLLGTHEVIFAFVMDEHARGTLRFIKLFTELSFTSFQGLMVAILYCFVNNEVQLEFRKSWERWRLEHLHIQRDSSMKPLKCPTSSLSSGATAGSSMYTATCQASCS
Albumin, sequence (P02768 whole entry): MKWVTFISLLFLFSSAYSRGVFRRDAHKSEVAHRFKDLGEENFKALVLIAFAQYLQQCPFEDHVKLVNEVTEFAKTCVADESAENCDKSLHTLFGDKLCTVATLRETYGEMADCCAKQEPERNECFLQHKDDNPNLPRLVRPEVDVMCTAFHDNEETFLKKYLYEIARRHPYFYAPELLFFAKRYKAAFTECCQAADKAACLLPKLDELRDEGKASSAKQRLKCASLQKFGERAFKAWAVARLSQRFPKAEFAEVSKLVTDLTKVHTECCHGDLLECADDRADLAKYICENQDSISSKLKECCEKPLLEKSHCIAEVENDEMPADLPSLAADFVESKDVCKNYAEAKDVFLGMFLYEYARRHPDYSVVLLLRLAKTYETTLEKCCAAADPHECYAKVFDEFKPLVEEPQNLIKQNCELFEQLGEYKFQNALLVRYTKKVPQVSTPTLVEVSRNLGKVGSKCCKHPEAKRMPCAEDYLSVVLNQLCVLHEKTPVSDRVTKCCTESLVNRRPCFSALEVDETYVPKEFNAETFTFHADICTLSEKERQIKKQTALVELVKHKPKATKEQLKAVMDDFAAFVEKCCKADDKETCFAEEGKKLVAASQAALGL

Row | EC50 ([1]; read-out: EC50) | EC50 ([2]; read-out: EC50) | EC50 ([3]; read-out: EC50) | Compound | Ratio EC50 [4] | further results
1 | 0.33 pM | 3.96 pM | 0.84 pM | CCOc1ccc(Nc2ccc(/C(=C3C=C/C(=[N+](\CC)Cc4cccc(S(=O)(=O)[O-])c4)C=C\3C)c3ccc(N(CC)Cc4cccc(S(=O)(=O)NCCCCCC(=O)NCCOCCOCCOCCOCCOCCOCCOCCOCCC(=O)NCCCC[C@H](NC(=O)[C@@H](NC(=O)[C@H](CC(C)C)NC(=O)[C@H](Cc5c[nH]c6ccccc56)NC(=O)[C@H](C)NC(=O)[C@@H](NC(=O)[C@H](Cc5ccccc5)NC(=O)[C@H](CCC(=O)O)NC(=O)[C@H](CCCCN)NC(=O)[C@H](C)NC(=O)[C@H](C)NC(=O)[C@H](CCC(N)=O)NC(=O)CNC(=O)[C@H](CCC(=O)O)NC(=O)[C@H](CC(C)C)NC(=O)[C@H](Cc5ccc(O)cc5)NC(=O)[C@H](CO)NC(=O)[C@H](CO)NC(=O)[C@@H](NC(=O)[C@H](CC(=O)O)NC(=O)[C@H](CO)NC(=O)[C@@H](NC(=O)[C@H](Cc5ccccc5)NC(=O)[C@@H](NC(=O)CNC(=O)[C@H](CCC(=O)O)NC(=O)[C@H](CO)NC(=O)[C@@H](N)Cc5c[nH]cn5)[C@@H](C)O)[C@@H](C)O)C(C)C)[C@@H](C)CC)C(C)C)C(=O)NCC(=O)N[C@@H](CCCNC(=N)N)C(N)=O)c4)cc3C)cc2)cc1 | 2.55 | –
2 | 1.12 pM | 4.08 pM | 8.86 pM | CCOc1ccc(Nc2ccc(/C(=C3C=C/C(=[N+](\CC)Cc4ccc(S(=O)(=O)[O-])cc4)C=C/3C)c3ccc(N(CC)Cc4cccc(S(=O)(=O)NCCCCCC(=O)N[C@H](C(=O)O)C(=O)NCCCC[C@H](NC(=O)[C@H](C)NC(=O)[C@H](C)NC(=O)[C@H](CCC(N)=O)NC(=O)CNC(=O)[C@H](CCC(=O)O)NC(=O)[C@H](CC(C)C)NC(=O)[C@H](Cc5ccc(O)cc5)NC(=O)[C@H](CO)NC(=O)[C@H](CO)NC(=O)[C@@H](NC(=O)[C@H](CC(=O)O)NC(=O)[C@H](CO)NC(=O)[C@@H](NC(=O)[C@H](Cc5ccccc5)NC(=O)[C@@H](NC(=O)CNC(=O)[C@H](CCC(=O)O)NC(=O)C(C)(C)NC(=O)[C@@H](N)Cc5c[nH]cn5)[C@@H](C)O)[C@@H](C)O)C(C)C)C(=O)N[C@@H](CCC(=O)O)C(=O)N[C@@H](Cc5ccccc5)C(=O)N[C@H](C(=O)N[C@@H](C)C(=O)N[C@@H](Cc5c[nH]c6ccccc56)C(=O)N[C@@H](CC(C)C)C(=O)N[C@H](C(=O)N[C@@H](CCCNC(=N)N)C(=O)NCC(=O)N[C@@H](CCCNC(=N)N)C(=O)NCC(=O)O)C(C)C)[C@@H](C)CC)c4)cc3C)cc2)cc1 | 7.91 | –
3 | – | – | – | CCOc1ccc(Nc2ccc(/C(=C3C=C/C(=[N+](/CC)Cc4cccc(S(=O)(=O)[O-])c4)C=C/3C)c3ccc(N(CC)Cc4cccc(S(=O)(=O)O)c4)cc3C)cc2)cc1 [BRILLIANT BLUE G FREE ACID] | – | Kd (Albumin): 320000 pM
4 | 0.83 pM | 1.46 pM | 4.31 pM | CCOc1ccc(Nc2ccc(/C(=C3C=C/C(=[N+](\CC)Cc4cccc(S(=O)(=O)[O-])c4)C=C/3C)c3ccc(N(CC)Cc4cccc(S(=O)(=O)NCCCCCC(=O)NCCOCCOCC(=O)NCCOCCOCC(=O)NCCOCCOCC(=O)NCCCC[C@H](NC(=O)[C@H](C)NC(=O)[C@H](C)NC(=O)[C@H](CCC(N)=O)NC(=O)CNC(=O)[C@H](CCC(=O)O)NC(=O)[C@H](CC(C)C)NC(=O)[C@H](Cc5ccc(O)cc5)NC(=O)[C@H](CO)NC(=O)[C@H](CO)NC(=O)[C@@H](NC(=O)[C@H](CC(=O)O)NC(=O)[C@H](CO)NC(=O)[C@@H](NC(=O)[C@H](Cc5ccccc5)NC(=O)[C@@H](NC(=O)CNC(=O)[C@H](CCC(=O)O)NC(=O)C(C)(C)NC(=O)[C@@H](N)Cc5c[nH]cn5)[C@@H](C)O)[C@@H](C)O)C(C)C)C(=O)N[C@@H](CCC(=O)O)C(=O)N[C@@H](Cc5ccccc5)C(=O)N[C@H](C(=O)N[C@@H](C)C(=O)N[C@@H](Cc5c[nH]c6ccccc56)C(=O)N[C@@H](CC(C)C)C(=O)N[C@H](C(=O)N[C@@H](CCCNC(=N)N)C(=O)NCC(=O)N[C@@H](CCCNC(=N)N)C(=O)NCC(=O)O)C(C)C)[C@@H](C)CC)c4)cc3C)cc2)cc1 | – | –
5 | – | – | – | CC[C@H](C)[C@H](NC(=O)[C@H](Cc1ccccc1)NC(=O)[C@H](CCC(=O)O)NC(=O)[C@H](CCCCN)NC(=O)[C@H](C)NC(=O)[C@H](C)NC(=O)[C@H](CCC(N)=O)NC(=O)CNC(=O)[C@H](CCC(=O)O)NC(=O)[C@H](CC(C)C)NC(=O)[C@H](Cc1ccc(O)cc1)NC(=O)[C@H](CO)NC(=O)[C@H](CO)NC(=O)[C@@H](NC(=O)[C@H](CC(=O)O)NC(=O)[C@H](CO)NC(=O)[C@@H](NC(=O)[C@H](Cc1ccccc1)NC(=O)[C@@H](NC(=O)CNC(=O)[C@@H](N)CCC(=O)O)[C@@H](C)O)[C@@H](C)O)C(C)C)C(=O)N[C@@H](C)C(=O)N[C@@H](Cc1c[nH]c2ccccc12)C(=O)N[C@@H](CC(C)C)C(=O)N[C@H](C(=O)N[C@@H](CCCNC(=N)N)C(=O)NCC(=O)N[C@@H](CCCNC(=N)N)C(=O)NCC(N)=O)C(C)C | – | EC50 ([1]; hek293): No_effect; EC50 ([2]; hek293): No_effect; EC50 ([3]; hek293): No_effect
6 | 62.8 pM | 16.1 pM | 84.2 pM | H-HGEGTFTSDVSSYLEGQAAREFIAWLVRGRG-NH2 | 1.34 | half-life [5]: 50 min; remaining at 96 h [6]: 0%
7 | 0.79 pM | 2.93 pM | 3.94 pM | CCOc1ccc(Nc2ccc(/C(=C3C=C/C(=[N+](\CC)Cc4cccc(S(=O)(=O)[O-])c4)C=C/3C)c3ccc(N(CC)Cc4cccc(S(=O)(=O)NCCCCCC(=O)NCCOCCOCC(=O)NCCOCCOCC(=O)NCCCC[C@H](NC(=O)[C@H](C)NC(=O)[C@H](C)NC(=O)[C@H](CCC(N)=O)NC(=O)CNC(=O)[C@H](CCC(=O)O)NC(=O)[C@H](CC(C)C)NC(=O)[C@H](Cc5ccc(O)cc5)NC(=O)[C@H](CO)NC(=O)[C@H](CO)NC(=O)[C@@H](NC(=O)[C@H](CC(=O)O)NC(=O)[C@H](CO)NC(=O)[C@@H](NC(=O)[C@H](Cc5ccccc5)NC(=O)[C@@H](NC(=O)CNC(=O)[C@H](CCC(=O)O)NC(=O)C(C)(C)NC(=O)[C@@H](N)Cc5c[nH]cn5)[C@@H](C)O)[C@@H](C)O)C(C)C)C(=O)N[C@@H](CCC(=O)O)C(=O)N[C@@H](Cc5ccccc5)C(=O)N[C@H](C(=O)N[C@@H](C)C(=O)N[C@@H](Cc5c[nH]c6ccccc56)C(=O)N[C@@H](CC(C)C)C(=O)N[C@H](C(=O)N[C@@H](CCCNC(=N)N)C(=O)NCC(=O)N[C@@H](CCCNC(=N)N)C(=O)NCC(=O)O)C(C)C)[C@@H](C)CC)c4)cc3C)cc2)cc1 | – | –
